How the values were obtained:
[1] = Lipophilicity, log D of the compound by shake-flask method; assay type: physicochemical; settings: octanol/water
[2] = Volume of distribution at steady state in dog at 1 mg/kg, iv and 3 mg/kg, po; assay type: ADME, organism-based, Canis lupus familiaris; settings: in vivo, read-out: Vdss
[3] = Permeability from basolateral to apical side of MDCK cells expressing MDR1; assay type: ADME, cell-based, Canis lupus familiaris; settings: dog
[4] = Half life in dog at 1 mg/kg, iv and 3 mg/kg, po; assay type: ADME, organism-based, Canis lupus familiaris; settings: in vivo
[5] = Clearance in dog at 1 mg/kg, iv and 3 mg/kg, po; assay type: ADME, organism-based, Canis lupus familiaris; settings: in vivo
[6] = Permeability from apical to basolateral side of MDCK cells expressing MDR1; assay type: ADME, cell-based, Canis lupus familiaris; settings: dog
[7] = Oral bioavailability in dog; assay type: ADME, organism-based, Canis lupus familiaris; settings: in vivo

SMILES	logD [1]	further results
COc1ccc2cc(CNCCc3ccc(Br)cc3)c(-c3ccsc3)nc2c1	5.1	
CCNc1nc2c(c(C(N)=O)n1)CN(C(=O)CCc1ccccc1)CC2	1.4	
CCNc1nc2c(c(C(N)=O)n1)CN(C(=O)CCc1ccc(CC)cc1)CC2	2.4	
CCNc1nc2c(c(C(N)=O)n1)CN(C(=O)CCc1ccc(C(C)C)cc1)CC2	3.4	
CCNc1nc2c(c(C(N)=O)n1)CN(C(=O)CCc1ccc(OC)cc1)CC2	1.05	
CCNc1nc2c(c(C(N)=O)n1)CN(C(=O)CCc1ccc(OC(F)(F)F)cc1)CC2	3	Vd [2]: 0.43 L/kg; Papp B→A [3]: 19.2 ×10⁻⁶ cm/s; half-life [4]: 50.4 min; clearance [5]: 8.05 mL/min/kg; Papp A→B [6]: 12.4 ×10⁻⁶ cm/s; bioavailability [7]: 41%
CCNc1nc2c(c(C(N)=O)n1)CN(C(=O)CCc1ccc(SC(F)(F)F)cc1)CC2	3.5	
CCNc1nc2c(c(C(N)=O)n1)CN(C(=O)CCc1ccc(CC(F)(F)F)cc1)CC2	2.6	
CCNc1nc2c(c(C(N)=O)n1)CN(C(=O)CCc1ccc(C(C)(F)F)cc1)CC2	2.2	
CCNc1nc2c(c(C(N)=O)n1)CN(C(=O)CCc1ccc(C(C)(F)F)nc1)CC2	1.4	
CCc1nc2c(c(C(N)=O)n1)CN(C(=O)CCc1ccc(OC(F)(F)F)cc1)CC2	2.9	
CCOc1nc2c(c(C(N)=O)n1)CN(C(=O)CCc1ccc(OC(F)(F)F)cc1)CC2	2.9	
NC(=O)c1nc(C2CC2)nc2c1CN(C(=O)CCc1ccc(OC(F)(F)F)cc1)CC2	3.3	
Cc1ccc(N(C)C(=O)c2c(-c3ccccc3Cl)noc2C)cc1Cl	3.9	
CCc1nnn(-c2ccccc2)c1C(=O)N(C)c1ccc(Cl)cc1	2.9	
CC[C@H]1[C@@H](O)[C@@H]2[C@H](C[C@H](O)[C@]3(C)[C@@H]([C@H](C)C[C@H](C)C(=O)O)CC[C@@H]23)[C@@]2(C)CCC(O)C[C@@H]12 (single isomer, unassigned)	1.85	
